{"source": "patent US4623662A", "about": "“Antiatherosclerotic ureas and thioureas” (American Cyanamid Company, priority 1985, dated 1986)", "data": [{"biological_target": "T1, fatty acyl CoA: cholesterol acyl transferase (ACAT) (Rattus norvegicus, UniProt O70536)", "T1 construct": "The supernatant, containing the microsomal fraction, served as the source of the cholesterol-esterifying enzyme; from tissue; host or cells: rat adrenals, supernatant of 1,000 x g centrifugation containing the microsomal fraction", "T1 sequence (O70536 1-545)": "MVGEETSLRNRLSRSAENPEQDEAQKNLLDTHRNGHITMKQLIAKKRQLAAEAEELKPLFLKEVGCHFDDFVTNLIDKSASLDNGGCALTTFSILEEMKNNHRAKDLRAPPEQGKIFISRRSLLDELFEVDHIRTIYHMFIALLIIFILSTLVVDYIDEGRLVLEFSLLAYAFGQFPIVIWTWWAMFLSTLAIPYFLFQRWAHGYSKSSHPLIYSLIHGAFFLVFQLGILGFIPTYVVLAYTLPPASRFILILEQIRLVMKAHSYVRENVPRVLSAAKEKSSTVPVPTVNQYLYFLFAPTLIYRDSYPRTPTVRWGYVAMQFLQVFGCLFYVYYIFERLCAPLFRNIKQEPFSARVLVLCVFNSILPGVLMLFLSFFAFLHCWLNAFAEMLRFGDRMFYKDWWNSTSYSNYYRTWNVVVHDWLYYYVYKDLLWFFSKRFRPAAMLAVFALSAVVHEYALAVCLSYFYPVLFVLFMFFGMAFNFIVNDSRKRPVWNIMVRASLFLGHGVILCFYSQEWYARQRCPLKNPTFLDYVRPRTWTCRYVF", "assay": "Inhibition of fatty acyl CoA:cholesterol acyl transferase (ACAT), rat adrenal enzyme", "type": "biochemical", "conditions": "not given", "summary_of_the_method": "(§1)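 Read-out was scintillation counting of [14C]cholesteryl ester, isolated by TLC, after 10 min at 37° C with [14C]oleoyl CoA. Beforehand, compound (final 5.2 μg/ml in single-concentration tests) was preincubated 10 min at 37° C with BSA and rat adrenal microsomal supernatant in pH 7.4 phosphate. Results given as percent inhibition versus control or IC50 over several concentrations.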", "units": {"inhibition at 5.2 µg/mL": "%"}, "values": [{"smiles": "CCCCCCCN(Cc1cccs1)C(=O)Nc1cc(C)c(C)cc1C", "note": "[1-Heptyl-1-(2-thienylmethyl)-3-(2,4,5-trimethylphenyl)urea]", "inhibition at 5.2 µg/mL": 90}, {"smiles": "Cc1cc(Cl)cc(C)c1NC(=O)N(CCC(C)(C)C)Cc1ccc(CC(C)(C)C)cc1", "note": "[1-(3,3-Dimethylbutyl)-1-[4-(2,2-dimethylpropyl)benzyl]-3-(4-chloro-2,6-dimethylphenyl)urea]", "inhibition at 5.2 µg/mL": 90}, {"smiles": "CC(C)(C)CCN(Cc1cccs1)C(=O)Nc1ccc(F)cc1F", "note": "[3-(2,4-Difluorophenyl)-1-(3,3-dimethylbutyl)-1-(2-thienylmethyl)urea]", "inhibition at 5.2 µg/mL": 90}, {"smiles": "CCCCCCCN(CCc1ccccc1)C(=O)Nc1ccc(Cl)cc1C(F)(F)F", "note": "[1-(n-Heptyl)-1-(2-phenylethyl)-3-(2-trifluoromethyl-4-chlorophenyl)urea]", "inhibition at 5.2 µg/mL": 88.3}, {"smiles": "CCCCc1ccc(CN(CCCCCCCl)C(=O)Nc2c(Cl)cc(Cl)cc2Cl)cc1", "note": "[1-[(4-Butylphenyl)methyl]-1-(6-chlorohexyl)-3-(2,4,6-trichlorophenyl)urea]", "inhibition at 5.2 µg/mL": 90}, {"smiles": "CCCCCCCN(Cc1ccc(CCCC)cc1)C(=O)Nc1cc(C)c(Cl)cc1C", "note": "[1-(n-Heptyl)-1-[4-(n-butyl)benzyl]-3-(4-chloro-2,5-dimethylphenyl)urea]", "inhibition at 5.2 µg/mL": 90}, {"smiles": "Cc1cc(Cl)ccc1NC(=O)N(CCC(C)(C)C)Cc1ccc(CC(C)(C)C)cc1", "note": "[1-(3,3-Dimethylbutyl)-1-[4-(2,2-dimethylpropyl)benzyl]-3-(4-chloro-2-methylphenyl)urea]", "inhibition at 5.2 µg/mL": 90}, {"smiles": "CCCCOc1ccc(CN(CCC(C)(C)C)C(=O)Nc2c(Cl)cc(Cl)cc2Cl)cc1", "note": "[1-(3,3-Dimethylbutyl)-1-[4-(n-butoxy)benzyl]-3-(2,4,6-trichlorophenyl)urea]", "inhibition at 5.2 µg/mL": 90}, {"smiles": "CCCCc1ccc(CN(CCCCCCC#N)C(=O)Nc2c(Cl)cc(Cl)cc2Cl)cc1", "note": "[1-[(4-Butylphenyl)methyl]-1-(6-cyanohexyl)-3-(2,4,6-trichlorophenyl)urea]", "inhibition at 5.2 µg/mL": 90}, {"smiles": "CCCCCCCN(Cc1ccc(CCCC)cc1)C(=O)Nc1c(C)cc(Cl)cc1C", "note": "[1-(n-Heptyl)-1-[4-(n-butyl)benzyl]-3-(4-chloro-2,6-dimethylphenyl)urea]", "inhibition at 5.2 µg/mL": 90}]}, {"biological_target": "T1, fatty acyl CoA: cholesterol acyl transferase (ACAT)", "assay": "Inhibition of fatty acyl CoA:cholesterol acyl transferase (ACAT), rat adrenal enzyme", "type": "biochemical", "conditions": "rat adrenal ACAT; final concentration 5.2 μg/ml; read-out: % Inhibition", "summary_of_the_method": "as §1", "units": {"inhibition at 5.2 µg/mL": "%"}, "values": [{"smiles": "Cc1ccc(NC(=O)N(Cc2ccc(C)c(C)c2)Cc2ccccc2Cl)c(C)c1", "note": "[1-(3,4-Dimethylbenzyl)-1-(2-chlorobenzyl)-3-(2,4-dimethylphenyl)urea]", "inhibition at 5.2 µg/mL": 92.9}, {"smiles": "CCCCOc1ccc(CN(Cc2ccccc2)C(=O)Nc2ccc(Cl)cc2C(F)(F)F)cc1", "note": "[1-Benzyl-1-(4-n-butoxybenzyl)-3-(2-trifluoromethyl-4-chlorophenyl)urea]", "inhibition at 5.2 µg/mL": 85}, {"smiles": "CCCCOc1ccc(CN(Cc2ccccc2)C(=O)Nc2c(Cl)cc(Cl)cc2Cl)cc1", "note": "[1-Benzyl-1-(4-n-butoxybenzyl)-3-(2,4,6-trichlorophenyl)urea]", "inhibition at 5.2 µg/mL": 95.2}, {"smiles": "CCCCCCCN(Cc1ccc(CCCC)cc1)C(=O)Nc1ccc(C)cc1C", "note": "[1-(n-Heptyl)-1-(4-n-butylbenzyl)-3-(2,4-dimethylphenyl)urea]", "inhibition at 5.2 µg/mL": 94.8}]}, {"system": "cholesterol absorption", "assay": "Inhibition of cholesterol absorption in rats fed 1% cholesterol:0.5% cholic acid diet", "type": "in vivo, male Sprague-Dawley rats", "conditions": "po, 336 h; rat; dose .03% of the diet, 2 weeks; read-out: LS (liver sterol), percentage of control values", "summary_of_the_method": "(§2)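 Compound was mixed into the diet (0.001-0.03%) of male Sprague-Dawley rats, 150-170 g, on a 1% cholesterol/0.5% cholic acid regimen for 2 weeks. At sacrifice, serum cholesterol (enzymatic) and liver neutral-sterol cholesterol were measured; values given as percent of compound-free control rats.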", "units": {"response vs control in vivo at 0.03 %": "%"}, "values": [{"smiles": "CCCCCCCN(Cc1cccs1)C(=O)Nc1cc(C)c(C)cc1C", "note": "[1-Heptyl-1-(2-thienylmethyl)-3-(2,4,5-trimethylphenyl)urea]", "response vs control in vivo at 0.03 %": 25}, {"smiles": "Cc1ccc(NC(=O)N(Cc2ccc(C)c(C)c2)Cc2ccccc2Cl)c(C)c1", "note": "[1-(3,4-Dimethylbenzyl)-1-(2-chlorobenzyl)-3-(2,4-dimethylphenyl)urea]", "response vs control in vivo at 0.03 %": 15}, {"smiles": "Cc1cc(Cl)cc(C)c1NC(=O)N(CCC(C)(C)C)Cc1ccc(CC(C)(C)C)cc1", "note": "[1-(3,3-Dimethylbutyl)-1-[4-(2,2-dimethylpropyl)benzyl]-3-(4-chloro-2,6-dimethylphenyl)urea]", "response vs control in vivo at 0.03 %": 11}, {"smiles": "CCCCOc1ccc(CN(Cc2ccccc2)C(=O)Nc2ccc(Cl)cc2C(F)(F)F)cc1", "note": "[1-Benzyl-1-(4-n-butoxybenzyl)-3-(2-trifluoromethyl-4-chlorophenyl)urea]", "response vs control in vivo at 0.03 %": 31}, {"smiles": "CC(C)(C)CCN(Cc1cccs1)C(=O)Nc1ccc(F)cc1F", "note": "[3-(2,4-Difluorophenyl)-1-(3,3-dimethylbutyl)-1-(2-thienylmethyl)urea]", "response vs control in vivo at 0.03 %": 73}, {"smiles": "CCCCOc1ccc(CN(Cc2ccccc2)C(=O)Nc2c(Cl)cc(Cl)cc2Cl)cc1", "note": "[1-Benzyl-1-(4-n-butoxybenzyl)-3-(2,4,6-trichlorophenyl)urea]", "response vs control in vivo at 0.03 %": 8}, {"smiles": "CCCCCCCN(CCc1ccccc1)C(=O)Nc1ccc(Cl)cc1C(F)(F)F", "note": "[1-(n-Heptyl)-1-(2-phenylethyl)-3-(2-trifluoromethyl-4-chlorophenyl)urea]", "response vs control in vivo at 0.03 %": 80}, {"smiles": "CCCCCCCN(Cc1ccc(CCCC)cc1)C(=O)Nc1ccc(C)cc1C", "note": "[1-(n-Heptyl)-1-(4-n-butylbenzyl)-3-(2,4-dimethylphenyl)urea]", "response vs control in vivo at 0.03 %": 14}, {"smiles": "CCCCc1ccc(CN(CCCCCCCl)C(=O)Nc2c(Cl)cc(Cl)cc2Cl)cc1", "note": "[1-[(4-Butylphenyl)methyl]-1-(6-chlorohexyl)-3-(2,4,6-trichlorophenyl)urea]", "response vs control in vivo at 0.03 %": 19}, {"smiles": "CCCCCCCN(Cc1ccc(CCCC)cc1)C(=O)Nc1cc(C)c(Cl)cc1C", "note": "[1-(n-Heptyl)-1-[4-(n-butyl)benzyl]-3-(4-chloro-2,5-dimethylphenyl)urea]", "response vs control in vivo at 0.03 %": 19}, {"smiles": "Cc1cc(Cl)ccc1NC(=O)N(CCC(C)(C)C)Cc1ccc(CC(C)(C)C)cc1", "note": "[1-(3,3-Dimethylbutyl)-1-[4-(2,2-dimethylpropyl)benzyl]-3-(4-chloro-2-methylphenyl)urea]", "response vs control in vivo at 0.03 %": 20}, {"smiles": "CCCCOc1ccc(CN(CCC(C)(C)C)C(=O)Nc2c(Cl)cc(Cl)cc2Cl)cc1", "note": "[1-(3,3-Dimethylbutyl)-1-[4-(n-butoxy)benzyl]-3-(2,4,6-trichlorophenyl)urea]", "response vs control in vivo at 0.03 %": 20}, {"smiles": "CCCCc1ccc(CN(CCCCCCC#N)C(=O)Nc2c(Cl)cc(Cl)cc2Cl)cc1", "note": "[1-[(4-Butylphenyl)methyl]-1-(6-cyanohexyl)-3-(2,4,6-trichlorophenyl)urea]", "response vs control in vivo at 0.03 %": 35}, {"smiles": "CCCCCCCN(Cc1ccc(CCCC)cc1)C(=O)Nc1c(C)cc(Cl)cc1C", "note": "[1-(n-Heptyl)-1-[4-(n-butyl)benzyl]-3-(4-chloro-2,6-dimethylphenyl)urea]", "response vs control in vivo at 0.03 %": 11}]}, {"system": "cholesterol absorption", "assay": "Inhibition of cholesterol absorption in rats fed 1% cholesterol:0.5% cholic acid diet", "type": "in vivo, male Sprague-Dawley rats", "conditions": "po, 336 h; rat; dose .03% of the diet, 2 weeks; read-out: SS (serum sterol), percentage of control values", "summary_of_the_method": "as §2", "units": {"response vs control in vivo at 0.03 %": "%"}, "values": [{"smiles": "CCCCCCCN(Cc1cccs1)C(=O)Nc1cc(C)c(C)cc1C", "note": "[1-Heptyl-1-(2-thienylmethyl)-3-(2,4,5-trimethylphenyl)urea]", "response vs control in vivo at 0.03 %": 54}, {"smiles": "Cc1ccc(NC(=O)N(Cc2ccc(C)c(C)c2)Cc2ccccc2Cl)c(C)c1", "note": "[1-(3,4-Dimethylbenzyl)-1-(2-chlorobenzyl)-3-(2,4-dimethylphenyl)urea]", "response vs control in vivo at 0.03 %": 44}, {"smiles": "Cc1cc(Cl)cc(C)c1NC(=O)N(CCC(C)(C)C)Cc1ccc(CC(C)(C)C)cc1", "note": "[1-(3,3-Dimethylbutyl)-1-[4-(2,2-dimethylpropyl)benzyl]-3-(4-chloro-2,6-dimethylphenyl)urea]", "response vs control in vivo at 0.03 %": 31}, {"smiles": "CCCCOc1ccc(CN(Cc2ccccc2)C(=O)Nc2ccc(Cl)cc2C(F)(F)F)cc1", "note": "[1-Benzyl-1-(4-n-butoxybenzyl)-3-(2-trifluoromethyl-4-chlorophenyl)urea]", "response vs control in vivo at 0.03 %": 58}, {"smiles": "CC(C)(C)CCN(Cc1cccs1)C(=O)Nc1ccc(F)cc1F", "note": "[3-(2,4-Difluorophenyl)-1-(3,3-dimethylbutyl)-1-(2-thienylmethyl)urea]", "response vs control in vivo at 0.03 %": 66}, {"smiles": "CCCCOc1ccc(CN(Cc2ccccc2)C(=O)Nc2c(Cl)cc(Cl)cc2Cl)cc1", "note": "[1-Benzyl-1-(4-n-butoxybenzyl)-3-(2,4,6-trichlorophenyl)urea]", "response vs control in vivo at 0.03 %": 40}, {"smiles": "CCCCCCCN(CCc1ccccc1)C(=O)Nc1ccc(Cl)cc1C(F)(F)F", "note": "[1-(n-Heptyl)-1-(2-phenylethyl)-3-(2-trifluoromethyl-4-chlorophenyl)urea]", "response vs control in vivo at 0.03 %": 79}, {"smiles": "CCCCCCCN(Cc1ccc(CCCC)cc1)C(=O)Nc1ccc(C)cc1C", "note": "[1-(n-Heptyl)-1-(4-n-butylbenzyl)-3-(2,4-dimethylphenyl)urea]", "response vs control in vivo at 0.03 %": 46}, {"smiles": "CCCCc1ccc(CN(CCCCCCCl)C(=O)Nc2c(Cl)cc(Cl)cc2Cl)cc1", "note": "[1-[(4-Butylphenyl)methyl]-1-(6-chlorohexyl)-3-(2,4,6-trichlorophenyl)urea]", "response vs control in vivo at 0.03 %": 34}, {"smiles": "CCCCCCCN(Cc1ccc(CCCC)cc1)C(=O)Nc1cc(C)c(Cl)cc1C", "note": "[1-(n-Heptyl)-1-[4-(n-butyl)benzyl]-3-(4-chloro-2,5-dimethylphenyl)urea]", "response vs control in vivo at 0.03 %": 48}, {"smiles": "Cc1cc(Cl)ccc1NC(=O)N(CCC(C)(C)C)Cc1ccc(CC(C)(C)C)cc1", "note": "[1-(3,3-Dimethylbutyl)-1-[4-(2,2-dimethylpropyl)benzyl]-3-(4-chloro-2-methylphenyl)urea]", "response vs control in vivo at 0.03 %": 51}, {"smiles": "CCCCOc1ccc(CN(CCC(C)(C)C)C(=O)Nc2c(Cl)cc(Cl)cc2Cl)cc1", "note": "[1-(3,3-Dimethylbutyl)-1-[4-(n-butoxy)benzyl]-3-(2,4,6-trichlorophenyl)urea]", "response vs control in vivo at 0.03 %": 52}, {"smiles": "CCCCc1ccc(CN(CCCCCCC#N)C(=O)Nc2c(Cl)cc(Cl)cc2Cl)cc1", "note": "[1-[(4-Butylphenyl)methyl]-1-(6-cyanohexyl)-3-(2,4,6-trichlorophenyl)urea]", "response vs control in vivo at 0.03 %": 31}, {"smiles": "CCCCCCCN(Cc1ccc(CCCC)cc1)C(=O)Nc1c(C)cc(Cl)cc1C", "note": "[1-(n-Heptyl)-1-[4-(n-butyl)benzyl]-3-(4-chloro-2,6-dimethylphenyl)urea]", "response vs control in vivo at 0.03 %": 31}]}]}
